Experimental findings from patent US20250205342A1, “IRAK DEGRADERS AND USES THEREOF” (Kymera Therapeutics, Inc., priority 2022, published 2025) are described below.

Assay [1] has as its target T1, IRAK4 (Homo sapiens, UniProt Q9NWZ3).
T1 sequence (Q9NWZ3 1-460): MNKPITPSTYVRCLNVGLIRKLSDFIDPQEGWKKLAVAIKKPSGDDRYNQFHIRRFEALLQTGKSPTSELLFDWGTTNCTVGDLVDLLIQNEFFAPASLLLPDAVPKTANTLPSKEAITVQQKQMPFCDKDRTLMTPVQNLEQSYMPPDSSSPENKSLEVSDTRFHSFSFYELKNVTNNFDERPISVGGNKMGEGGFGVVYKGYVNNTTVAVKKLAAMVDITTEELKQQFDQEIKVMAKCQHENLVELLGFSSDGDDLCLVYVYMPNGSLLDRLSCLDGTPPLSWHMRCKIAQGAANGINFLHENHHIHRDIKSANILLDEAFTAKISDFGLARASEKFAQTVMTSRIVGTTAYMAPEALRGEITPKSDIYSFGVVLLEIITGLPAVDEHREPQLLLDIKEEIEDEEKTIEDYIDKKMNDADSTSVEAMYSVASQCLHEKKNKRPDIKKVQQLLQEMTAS
Kind of assay: hPBMC IRAK4 degradation flow assay (monocytes). The assay is classed as cell-based. More on the design: endogenous in cells; host or cells: human PBMCs (monocytes, CD14 positive gate). To be noted: CD14 positive monocytes, 20 h, read-out: hPBMC monocyte DC50 at 20 h. As to the method:
In the hPBMC IRAK4 degradation flow assay, frozen PBMCs were thawed into RPMI with 10% FBS and allowed to recover. On the same day as thawed, PBMCs were plated in 96 well plate, 90 μL per well. Compound plates were prepared and a 10 point, 5-fold dilution was performed with a final DMSO concentration of 0.1%. Compound 10 μL per well was added, sealed and incubated at 37° C., 5% CO2 for 20 hours (for 4 hour treatment, compounds were prepared and added the following day). Following the treatment incubation period (day 1), 1.6% PFA was added to PBMC plate and placed on plate shaker for 30 seconds and incubated for 10 mins at room temperature. Cells were spun down and washed two times with PBS/0.5% BSA, aspirated to pellet and placed into −80° C. freezer until further processing for flow. On the flow run day, PBMC plates were thawed and samples were transferred to PCR plates. The pre-perm staining cocktail (CD3 Ax488/CD8 BUV805/CD14 BUV395/CD16/56 BV711/CD19 BV785) was added to samples and incubated for 30 minutes at room temperature. Samples were washed two times and permeabilized with methanol for 10 minutes at 4° C. Samples were washed two times and the post-perm staining cocktail (CD4 PE/IRAK4 Ax647 BD #560315) was added and incubated for 30 minutes at room temperature. Samples were washed two times with PBS/BSA and run on a BD LSRFortessa. Mononuclear cells are gated by SSCH/FSCH and single cells. Monocytes are then gated through CD14 positive gate and lymphocytes are gated through CD14 negative gate. To determine absolute DC50 and max degradation values, MFI values were normalized to DMSO max and 20 hour 10 µM min control. Twenty hour dose curves were calculated using a 4 parameter logistic regression curve fit, no constraints (Top doses were removed if hook effects were observed and the bottom was constrained to 0).
(§1) IRAK4 MSD degradation in OCI-LY10 results at 4 and 24 hrs and hPBMC at 20 hrs for compounds of the invention are presented in Table 3. The letter codes for IRAK4 DC50 include: A (<0.1 μM), B (0.1-1.0 μM), C(>1.0-10.0 μM), D (>10.0 μM or not determined).

Assay [2] deals with T1, IRAK4. The experiment in a line: IRAK4 degradation in OCI-LY10 (MSD, Meso Scale Discovery). On the set-up: endogenous in cells; host or cells: OCI-LY10. It counts as cell-based. As to conditions: OCI-LY10 cells, 24 h. The method, then: Degradation of IRAK4 in OCI-LY10 was quantitatively measured using Meso Scale Discovery technology. OCI-LY10 cells were seeded in 96-well plates (Corning 3799) with a density of 300,000 cells per well in 100 μL fresh media. Compounds were then added to the assay plates with a final top concentration of 1 to 10 μM in a 1:3 dilution series with total of 8 doses. The assay plates were then incubated for 4 to 24 hours at 37° C. under 5% CO2. The assay plates were then centrifuged for 5 minutes and the cell pellets were treated with 100 μL/well RIPA lysis buffer (Boston BioProducts BP-115D) with proteinase inhibitors. To prepare MSD assay plates (Meso Scale Discovery Catalog number L15XA-3), the plates were coated with 2 ug/mL capture antibody (mouse Anti-IRAK4 antibody [2H9], ab119942) in PBS, at 40 μL/well. The plates were then incubated overnight at […], washed 3 times with 150 μL/well TBST buffer (Cell Signaling Technology, Catalog number 9997S) and blocked with 150 μL/well blocking buffer (Meso Scale Discovery Catalog number R^93BA-4). Cell lysates were then added to MSD assay plates and the plates were incubated at room temperature for 1 hour. The plates were then washed 3 times with 150 μL/well TBST buffer and 25 μL/well primary detection antibody (rabbit Anti-IRAK4 antibody [Y279], from Abcam. Catalog number ab32511, 1 μg/mL). The assay plates were then incubated at room temperature for 1 hour, washed 3 times with 150 μL/well TBST buffer and 25 μL/well secondary detection antibody, SULFO-TAG anti-rabbit antibody were added (anti-rabbit antibody from Meso Scale Discovery, Catalog number R^32AB-1, 1 μg/mL). The assay plates were then incubated at room temperature for 1 hour, washed 3 times with 150 μL/well TBST buffer, and 150 μL/well MSD reading buffer (Meso Scale Discovery catalog number R^92TC-2) was added. The plates were then analyzed by a MSD reader (Meso Scale Discovery, Model Quick Plex SQ 120). The data was then analyzed by software Prism 7.0 from GraphPad and the dose-depended IRAK4 degradation were fit using a three-parameter logistic equation to calculate DC50.
as §1

SMILES strings stand for the structures.

Consider `CCOC(=O)Cn1cc(NC(=O)c2cccc3c2ccn3CCCCCCCCCNC[C@H]2CC[C@H](n3cc4cc(NC(=O)c5cccc(C(F)(F)F)n5)c(C(C)(C)O)cc4n3)CC2)ccc1=O` [Compound I-69], for which the half-maximal degradation concentration (DC50) on IRAK4 [1] and at IRAK4 [2] was 0.1 to 1 µM each time.
As for `COC(=O)Cn1cc(NC(=O)c2cccc(-c3cncc4cc(CCCCCCNC[C@H]5CC[C@H](n6cc7cc(NC(=O)c8cccc(C(F)(F)F)n8)c(C(C)(C)O)cc7n6)CC5)ccc34)c2)ccc1=O` [Compound I-57], the DC50 on IRAK4 [1] and at IRAK4 [2] was 1 to 10 µM throughout.
In the case of `COc1cc2nn([C@H]3CC[C@H](CNCCCCCCc4cncc(N5CCC[C@H](C(=O)Nc6ccc(=O)n(CC(=O)O)c6)C5)c4)CC3)cc2cc1NC(=O)c1cccc(C(F)(F)F)n1` [Compound I-24], the figures for the DC50 at IRAK4 [1] and on IRAK4 [2] were 0.1 to 1 µM and above 10 µM, respectively.
Regarding `CCOC(=O)Cn1cc(NC(=O)c2cccc3c2ccn3CCCCCCCCCNC[C@H]2CC[C@H](n3cc(NC(=O)c4cnn5ccc(N6C[C@H]7C[C@@H]6CO7)nc45)c(C(F)F)n3)CC2)ccc1=O` [Compound I-73], the 50% degradation concentration (DC50) on IRAK4 [1] and at IRAK4 [2] was above 10 µM in each case.
As for `CCOC(=O)Cn1cc(NC(=O)[C@H]2CCCN(c3cncc(OCCNC[C@H]4CC[C@H](n5cc(NC(=O)c6cnn7ccc(N8C[C@H]9C[C@@H]8CO9)nc67)c(C(F)F)n5)CC4)c3)C2)ccc1=O` [Compound I-48], the results for the half-maximal degradation concentration (DC50) at IRAK4 [1] and at IRAK4 [2] were 1 to 10 µM and above 10 µM, respectively.
Regarding `O=C(O)Cn1cc(NC(=O)[C@H]2CCCN(c3cncc(NCCOCCOCCNC[C@H]4CC[C@H](n5cc(NC(=O)c6cnn7ccc(N8C[C@H]9C[C@@H]8CO9)nc67)c(C(F)F)n5)CC4)c3)C2)ccc1=O` [Compound I-2], the 50% degradation concentration (DC50) at IRAK4 [1] and at IRAK4 [2] was above 10 µM each time.
For `O=C(O)Cn1cc(NC(=O)[C@H]2CCCN(c3cncc(NCCOCCOCCOCCOCCNC[C@H]4CC[C@H](n5cc(NC(=O)c6cnn7ccc(N8C[C@H]9C[C@@H]8CO9)nc67)c(C(F)F)n5)CC4)c3)C2)ccc1=O` [Compound I-4], the DC50 on IRAK4 [1] and on IRAK4 [2] was above 10 µM in each case.
Turning to `CCOC(=O)Cn1cc(NC(=O)[C@H]2CCCN(c3cncc(CCCCCCNC[C@H]4CC[C@H](n5cc(NC(=O)c6cnn7ccc(N8C[C@H]9C[C@@H]8CO9)nc67)c(C(F)F)n5)CC4)c3)C2)ccc1=O` [Compound I-32], the DC50 on IRAK4 [1] and at IRAK4 [2] was above 10 µM in each case.
On to `COc1cc(-c2ccc(F)c(CCCCCCCCCNC[C@H]3CC[C@H](n4cc5cc(NC(=O)c6cccc(C(F)(F)F)n6)c(C(C)(C)O)cc5n4)CC3)c2)ccc1C(=O)Nc1ccc(=O)n(CC(=O)O)c1` [Compound I-63], for which the DC50 on IRAK4 [1] and at IRAK4 [2] was above 10 µM each time.
Turning to `CCOC(=O)Cn1cc(NC(=O)[C@H]2CCCN(c3cncc(NCCOCCOCCOCCOCCNC[C@H]4CC[C@H](n5cc(NC(=O)c6cnn7ccc(N8C[C@H]9C[C@@H]8CO9)nc67)c(C(F)F)n5)CC4)c3)C2)ccc1=O` [Compound I-6], the DC50 at IRAK4 [1] and at IRAK4 [2] was above 10 µM each time.
As to `CCOC(=O)Cn1cc(NC(=O)[C@H]2CCCN(c3cncc(C#CCOC4CCN(C[C@H]5CC[C@H](n6cc7cc(NC(=O)c8cccc(C(F)(F)F)n8)c(OC)cc7n6)CC5)CC4)c3)C2)ccc1=O` [Compound I-22], the half-maximal degradation concentration (DC50) is below 0.1 µM on IRAK4 [1] and above 10 µM on IRAK4 [2].
The corresponding values for `COc1cc2nn([C@H]3CC[C@H](CNCCOCCOCCNc4cncc(N5CCC[C@H](C(=O)Nc6ccc(=O)n(CC(=O)O)c6)C5)c4)CC3)cc2cc1NC(=O)c1cccc(C(F)(F)F)n1` [Compound I-1] are 1 to 10 µM and above 10 µM.
On the same counts, the results for `COc1cc2nn([C@H]3CC[C@H](CNCCOCCOCCOCCOCCNc4cncc(N5CCC[C@H](C(=O)Nc6ccc(=O)n(CC(=O)O)c6)C5)c4)CC3)cc2cc1NC(=O)c1cccc(C(F)(F)F)n1` [Compound I-3] are above 10 µM and above 10 µM.
On the same counts, the results for `CCOC(=O)Cn1cc(NC(=O)[C@H]2CCCN(c3cncc(OCCOCCOCCOCCOCCNC[C@H]4CC[C@H](n5cc(NC(=O)c6cnn7ccc(N8C[C@H]9C[C@@H]8CO9)nc67)c(C(F)F)n5)CC4)c3)C2)ccc1=O` [Compound I-47] are above 10 µM and above 10 µM.
Consider `COC(=O)Cn1cc(NC(=O)c2cccc(-c3cncc4c(CCCCCCCCCNC[C@H]5CC[C@H](n6cc7cc(NC(=O)c8cccc(C(F)(F)F)n8)c(C(C)(C)O)cc7n6)CC5)cccc34)c2)ccc1=O` [Compound I-54], for which the half-maximal degradation concentration (DC50) on IRAK4 [1] and on IRAK4 [2] was 1 to 10 µM in each case.
For the compound `COc1cc(-c2ccc(CCCCCCCCCNC[C@H]3CC[C@H](n4cc(NC(=O)c5cnn6ccc(N7C[C@H]8C[C@@H]7CO8)nc56)c(C(F)F)n4)CC3)cc2)ccc1C(=O)Nc1ccc(=O)n(CC(=O)O)c1` [Compound I-62], the DC50 on IRAK4 [1] and on IRAK4 [2] was above 10 µM throughout.
On to `O=C(O)Cn1cc(NC(=O)c2cccc3c2ccn3CCCCCCNC[C@H]2CC[C@H](n3cc(NC(=O)c4cnn5ccc(N6C[C@H]7C[C@@H]6CO7)nc45)c(C(F)F)n3)CC2)ccc1=O` [Compound I-59], for which the half-maximal degradation concentration (DC50) at IRAK4 [1] and at IRAK4 [2] was above 10 µM each time.
Consider `O=C(O)Cn1cc(NC(=O)c2cccc(-c3cncc(CCCCCCNC[C@H]4CC[C@H](n5cc(NC(=O)c6cnn7ccc(N8C[C@H]9C[C@@H]8CO9)nc67)c(C(F)F)n5)CC4)c3)c2)ccc1=O` [Compound I-92], for which the DC50 on IRAK4 [1] and at IRAK4 [2] was above 10 µM throughout.
For the compound `CCOC(=O)Cn1cc(NC(=O)[C@H]2CCCN(c3cncc(OCCOCCOCCNC[C@H]4CC[C@H](n5cc6cc(NC(=O)c7cccc(C(F)(F)F)n7)c(OC)cc6n5)CC4)c3)C2)ccc1=O` [Compound I-41], the DC50 at IRAK4 [1] and on IRAK4 [2] was above 10 µM in each case.
As to `O=C(O)Cn1cc(NC(=O)c2cccc3c2ccn3CCCNC[C@H]2CC[C@H](n3cc(NC(=O)c4cnn5ccc(N6C[C@H]7C[C@@H]6CO7)nc45)c(C(F)F)n3)CC2)ccc1=O` [Compound I-77], the half-maximal degradation concentration (DC50) on IRAK4 [1] and on IRAK4 [2] was above 10 µM in each case.
For the compound `CC(C)(O)c1cc2nn([C@H]3CC[C@H](CNCCCCCCc4cncc(-c5cccc(C(=O)Nc6ccc(=O)n(CC(=O)O)c6)c5)c4)CC3)cc2cc1NC(=O)c1cccc(C(F)(F)F)n1` [Compound I-94], the half-maximal degradation concentration (DC50) on IRAK4 [1] is above 10 µM; on IRAK4 [2], 1 to 10 µM.
